Assay results taken from patent US20240239750A1, “PHARMACEUTICAL PREPARATION” (Aerie Pharmaceuticals, Inc., priority 2021, published 2024).
Several values for one entry are separate records, joined by “and”; a condition that tells them apart may be missing. Equal values may be shown once. One block for each compound: values may come before it.

Columns and labels:
Assay type in all cases: physicochemical
[1] = TG/DSC thermal analysis; conditions: for Enthalpy / Onset Temperature / Signal Temperature: TG/DSC signal of Compound 1 mono-tosylate solid form; for onset of thermal decomposition: TG/DSC, 10° C./min
Procedure: (§1) Thermogravimetric Analysis/Differential Scanning Calorimetry (TGA/DSC): Approximately, 5-10 mg of material was added into a pre-tared open aluminum pan and loaded into a TA Instruments Discovery SDT 650 Auto—Simultaneous DSC and held at room temperature. The sample was then heated at a rate of 10° C./min from 30° C. to 350° C. during which time the change in sample weight was recorded along with the heat flow response (DSC). Nitrogen was used as the sample purge gas, at a flow rate of 200 cm^3/min.
as §1, with “Thermogravimetric/Differential Thermal Analysis (TG/DTA):” for “Thermogravimetric Analysis/Differential Scanning Calorimetry (TGA/DSC):”, “cm^3/min. […]” for “cm^3/min.”

[2] = Polymorph stability study (competitive slurrying)
Procedure: To prepare solutions saturated with Compound 1 mono-tosylate for competitive slurrying, 2×100 mg (0.20 mmol) amorphous Compound 1 mono-tosylate was weighed into 2×4 mL vials. To each vial, 500 μL of ethanol was added and the vials were manually shaken for a few seconds. Complete dissolution was noted. A further about 20 mg of amorphous Compound 1 mono-tosylate was added to each vial and the vials were agitated for about 3 hours: one vial at ambient temperature and one vial at 60° C. After about 3 hours, both were solutions. More amorphous Compound 1 mono-tosylate (about 30 mg) was added to each vial and they were shaken at their respective temperatures again for about another hour. Both appeared to be slurries. To remove the excess solids, the slurries were filtered centrifugally and the mother liquors each placed into separate, clean vials. […] After 48 hours, the solids were recovered via centrifugal filtration and analyzed by XRPD. The XRPD plate containing the solids was then dried at 40° C. for 2 hours and re-analyzed.
To prepare a solution saturated with amorphous Compound 1 mono-tosylate for competitive slurrying, 50 mg (0.10 mmol) of amorphous Compound 1 mono-tosylate was weighed into a 4 mL vial. […] After 72 hours, the solids were recovered via centrifugal filtration and analyzed by XRPD.

[3] = Drying of solids and re-analysis by XRPD (form conversion)
Procedure: Any new solids which produced patterns by XRPD were dried at 40° C. for 24 hours before being analyzed again. Potential New Patterns were also analyzed by ^1H NMR, PLM and TG/DSC.
To prepare crystalline forms 1 and 4 of Compound 1 mono-tosylate, 2×500 mg (1.01 mmol) of amorphous Compound 1 mono-tosylate was placed into 20 ml vials. To each of these vials, 12 ml of solvent (dichloromethane for crystalline form 1 and tetrahydrofuran for crystalline form 4) was added to prepare slurries. Volumes/mass used were a direct scale-up from the primary screen discussed above. The slurries were thermally cycled (with agitation) between ambient temperature and 40° C. (4-hour cycles at each condition) for 72 hours. Post-thermal cycling, an aliquot of solid was removed from each vial using a micro-spatula and analyzed by XRPD to confirm that the desired form was produced. The remainder of each slurry was then filtered by Buchner filtration. The solids were dried on the filter bed for no longer than 1 minute before being transferred to pre-weighed 20 ml vials. The solids were then dried under vacuum at ambient temperature for 2 hours. Another aliquot of each solid was analyzed by XRPD post-drying. […] As such, the solids were transferred to an oven at 40° C. (ambient pressure) and subsequently dried for approximately 18 hours. […] Crystalline form 1 yield: 86.1%. Crystalline form 4 yield: 84.2%.

[4] = 7 day stability study of solid forms (XRPD, HPLC); conditions: stored 7 days; 40° C./75% RH (open vial) according to b80 and FIG. 14 legend
Procedure: Crystalline form 5 of Compound 1 mono-tosylate was obtained during a 7 day stability study for crystalline forms 1 and 4. In the study, 3×20 mg (0.04 mmol) of crystalline forms 1 and 4, and amorphous Compound 1 mono-tosylate, were individually weighted into 1.5 mL vials and stored under the following conditions for 7 days: • (i) 40° C./75% relative humidity (RH) (open vial); • (ii) 80° C./ambient humidity (sealed vial); and • (iii) Ambient conditions (open vial).
After 7 days, any remaining solids recovered were analyzed by XRPD to assess form purity and HPLC changes in chemical purity. […] More crystalline form 5 was prepared by storing 100 mg of crystalline form 4 […] for approximately 4 days.

[5] = listed as Amorphous, mono-tosylate salt
[6] = listed as Form 6, mono-tosylate salt

SMILES: Cc1ccc(S(=O)(=O)O)cc1.NC[C@@H](C(=O)Nc1ccc2cnccc2c1)c1ccc(CO)cc1 [amorphous Compound 1 mono-tosylate, alpha-(aminomethyl)-4-(hydroxymethyl)-N-6-isoquinolinyl-(S)-benzeneacetamide mono-tosylate salt]
Enthalpy [1, 5]: 94.1 J/g | Onset Temperature [1, 5]: 184.0 °C | Signal Temperature [1, 5]: 202.1 °C | onset of thermal decomposition ([1]; listed as Amorphous Compound 1 Mono-Tosylate, mono-tosylate salt): event associated with decomposition observed (onset 184° C.) | onset of thermal decomposition ([1]; listed as amorphous Compound 1, mono-tosylate salt): 184 °C | onset of thermal decomposition ([1]; listed as amorphous material, mono-tosylate salt): about 184 °C

SMILES: Cc1ccc(S(=O)(=O)O)cc1.NC[C@@H](C(=O)Nc1ccc2cnccc2c1)c1ccc(CO)cc1 [crystalline form 1, alpha-(aminomethyl)-4-(hydroxymethyl)-N-6-isoquinolinyl-(S)-benzeneacetamide mono-tosylate salt]
form recovered (XRPD) after competitive slurrying ([2]; forms 1, 4 and 5 together in saturated ethanol, 48 hours, ambient temperature and 60° C.): New crystalline form 6 was observed | onset of thermal decomposition ([1]; mono-tosylate salt): 189 °C

SMILES: Cc1ccc(S(=O)(=O)O)cc1.NC[C@@H](C(=O)Nc1ccc2cnccc2c1)c1ccc(CO)cc1 [crystalline form 3, alpha-(aminomethyl)-4-(hydroxymethyl)-N-6-isoquinolinyl-(S)-benzeneacetamide mono-tosylate salt]
form conversion on drying ([3]; drying at 40° C. for approximately 24 hours): convert to crystalline form 4 | form conversion on drying ([3]; oven at 40° C. (ambient pressure), approximately 18 hours): converted to crystalline form 4 | form after drying ([3]; under vacuum at ambient temperature for 2 hours): crystalline form 3 remained also

The next lines start with results.

Enthalpy ([1]; listed as Form 4, mono-tosylate salt): 148.3 J/g and 126.6 J/g
SMILES: Cc1ccc(S(=O)(=O)O)cc1.NC[C@@H](C(=O)Nc1ccc2cnccc2c1)c1ccc(CO)cc1 [crystalline form 4, alpha-(aminomethyl)-4-(hydroxymethyl)-N-6-isoquinolinyl-(S)-benzeneacetamide mono-tosylate salt]
crystalline form found by XRPD after 7 day stability study [4]: converted into a new crystalline form: crystalline form 5

form after drying of the recovered solids ([2]; dried at 40° C. for 2 hours): retained on drying | Enthalpy [1, 6]: 165.0 J/g | Onset Temperature [1, 6]: 196.2 °C | Signal Temperature [1, 6]: 201.5 °C | stability of the form (conclusion from thermal and NMR analyses) ([1]; no loss in mass on heating prior to melting/decomposition): stable anhydrous form
SMILES: Cc1ccc(S(=O)(=O)O)cc1.NC[C@@H](C(=O)Nc1ccc2cnccc2c1)c1ccc(CO)cc1 [crystalline form 6, alpha-(aminomethyl)-4-(hydroxymethyl)-N-6-isoquinolinyl-(S)-benzeneacetamide mono-tosylate salt]
